In experiment [1] the test system is KMS21 high-risk MM cell line. In words: WST-1 cell proliferation inhibition (Example 8), KMS21. Format: cell-based. Conditions: Homo sapiens, WST-1, 48 hours, read-out: IC50, cell proliferation inhibitory activity, KMS21. On the procedure: (§1) Similar to Example 7, high-risk MM cell lines were treated with drugs, TC11 and PEG5(E)-TC11 at arbitrary concentrations. […] Specifically, each high-risk MM cell line was prepared at 5×10^5 cells/ml, and then seeded at 50 μl per well (2.5×10^4 cells). Drugs such as TC11, and PEG5(E)-TC11 were added to wells at arbitrary concentrations. WST-1 reagent was added at 48 hours after addition of drugs. After 1 hour of reaction at 37° C. in a CO2 incubator, absorbance was measured at a wavelength of 450 nm using a microplate reader. Cell viability was found from an absorbance ratio using absorbance at 0 μM designated as 100%. IC50 was calculated from a semi-logarithmic chart using Microsoft (registered trademark) Excel.

The test system of experiment [2] is high-risk MM cells (MUM24). In words: Apoptosis induction, Annexin V/PI flow cytometry. In kind it is cell-based, human. To be noted: MUM24, 10 μM, 24, 48 and 72 hours. Here is the method:
For observation of apoptosis induction caused by drugs, TC11 and PEG11(E)-TC11, one type of MM cells, MUM24 cells were treated with TC11 and PEG11(E)-TC11, Annexin V/PI staining was performed, and then analysis was conducted using a flow cytometer. More specifically, MUM24 was adjusted at 2.0×10^5 cells/mL, and then 1.95 mL each thereof was seeded to a 6-well plate. From the next day, TC11 and PEG11(E)-TC11 were added in such a manner that the final concentrations were 0, and 10 μM, and then cells were cultured at 37° C. for 24, 48, and 72 hours. Each cell (1.5 ml each) was collected, and then washed twice with Phosphate Buffered Saline (PBS, Sigma-Aldrich). Subsequently, each resultant was suspended again in a solution prepared by adding 5 μL of Annexin V-FITC and 5 μL of Propidium Iodide (PI) to 500 μL of 1×Binding Buffer in Annexin V-FITC Apoptosis Detection Kit (Bio Vision, California, USA), and then left to stand in the dark for 5 minutes. Fluorescence intensity was measured using BD™ LSR II Flow Cytometer (Becton, Dickinson and company, New Jersey, USA). Wavelengths to be measured were excitation wavelength of 488 nm, and fluorescence wavelengths of 530±15 nm for Annexin V-FITC and 610±10 nm for PI.
For orientation: In flow cytometry, cells or beads pass a laser one at a time.

The subject of another experiment is MUM24 cells. Put plainly: Cell cycle, DNA content by flow cytometry. Format: cell-based, human. To be noted: MUM24, 3 μM, 12, 24 and 36 hours. Here is the method:
The present inventors have reported that when HeLa cells of a human cervical cancer-derived cell line are treated with TC11, multipolarization and then multinucleation take place (Shiheido, H. et al., PLoS One, 7: e38878, 2012). The present inventors have also reported in the same paper α-tubulin and NPM1 as binding molecules for TC11. Next, intracellular DNA content was measured using flow cytometry in order to examine the effects of TC11 and its derivative, PEG11(E)-TC11 on cell cycle. More specifically, MUM24 was adjusted at 4.0×10^5 cells/mL, 1.95 mL each of MUM24 was seeded to a 6-well plate. From the next day, TC11 and PEG11(E)-TC11 were added in such a manner that the final concentrations were 0 and 3 μM, respectively, and then cells were cultured at 37° C. for 12, 24, and 36 hours. Each cell was collected, and then washed with PBS. 70% EtOH ([…]) was added and then the resultant was left to stand overnight at −30° C. After washing with PBS, […] of citrate-phosphate buffer was added, and then the resultant was left to stand at room temperature for 30 minutes, thereby eluting fragmented DNA. […] Fluorescence intensity was measured using BD FACS Calibur (Trademark) (Becton, Dickinson and company, New Jersey, USA). Wavelengths for measurement were an excitation wavelength of 488 nm, and a fluorescence wavelength of 610±10 nm.

For a further experiment, the system named is KMS11 xenograft. Put plainly: Antitumor effect on KMS11 cancer-bearing mice (Example 17). To be noted: Day 9, i.p., equimolar to TC11 60 mg/kgBW. Format: in vivo, ICR/SCID mice. On the procedure:
KMS11 was administered to 5-week-old ICR/SCID mice at 2×10^7 cells/mouse via hypodermic injection. Tumor volumes were measured over time, and the day on which the tumor volume exceeded 50 mm^3 was designated as Day 1 and observation was performed for 9 days. […] On the day of administration, these solutions were diluted 10-fold with physiological saline while stirring with Vortex, and then intraperitoneally administered. Tumor volume was calculated by the following formula.
Tumor volume (mm^3)=major axis×minor axis×minor axis×π/6=major axis×minor axis×minor axis×0.5236

The test system of experiment [3] is KMS11 high-risk MM cell line. In words: WST-1 cell proliferation inhibition (Example 8), KMS11. In kind it is cell-based. To be noted: Homo sapiens, KMS-11, WST-1, 48 hours, read-out: IC50, cell proliferation inhibitory activity, KMS11. Here is the method:
as §1
(In general: Formazan colour is commonly taken as a measure of viable cells.)

In experiment [4] the test system is HeLa (human cervical cancer cells). Put plainly: WST-1 proliferation assay (Example 10), HeLa. Conditions: WST-1, 48 hours. In kind it is cell-based. On the procedure: (§2) Cancer cells used herein were KMS34 (human myeloma cells), HeLa (human cervical cancer cells), HCT116 (human colon cancer cells; p53+/+), KATOIII (human stomach cancer cells), MDA-MB-231 (human breast cancer cells), HT-29 (human colon adenocarcinoma cells), PANC-1 (human pancreatic cancer cells), and Li-7 (human liver cancer cells). Proliferation assay of various cancer cells was performed by the WST-1 method (Cook, J A. & Mitchell, J B., Anal. Biochem., 179, 1-7, 1984) as follows. One μ1 each of PEG11(E)-TC11 and PEG11(O)-TC11 prepared in advance at target concentrations was added into each well of a 96-well microplate. Medium was added to the wells at 50 μl per well, and then mixed by tapping lightly the plate. Subsequently, KMS34 was prepared at a concentration of 5×10^5 cells/ml, and cells other than KMS34 were prepared at a concentration of 2×10^5 cells/ml. Cells were seeded at 50 μl per well (2.5×10^4 cells, 1×10^4 cells), and then incubated in a CO2 incubator (37° C., 5% CO2) for 48 hours. […] Subsequently, the plate was shaken with a plate reader for 1 minute, and then absorbance was measured at 450 nm. At this time, absorbance was also measured at 595 nm as a reference wavelength. The net absorbance was obtained by subtracting the absorbance at the reference wavelength from the absorbance at 450 nm.

For experiment [5], the system named is Li-7 (human liver cancer cells). In words: WST-1 proliferation assay (Example 10), Li-7. Conditions: U-7 (head of Table 4), WST-1, 48 hours. Format: cell-based. Here is the method: as §2

The values below come from patent publication US20190315775A1, “MODIFIED […] AND PHARMACEUTICAL COMPOSITION HAVING SAME AS ACTIVE INGREDIENT” (KEIO UNIVERSITY, priority 2016, published 2019).

Molecules are shown by their SMILES. pIC50: −log10 of the molar value.

Take `CC(C)c1cccc(C(C)C)c1N1C(=O)c2ccc(N)cc2C1=O` [TC11, 2-(2,6-di-isopropylphenyl)-5-amino-1H-isoindole-1,3-dione, reference compound]: the pIC50 in experiment [1] was 5.80; in experiment [3], 5.49. Also, the “Apoptosis induction (Annexin V+/PI− and Annexin V+/PI+ fractions)” value in experiment [2] is “clearly induce apoptosis”. Further, the “Effect on cell cycle (proportion of tetraploid cells)” value in the experiment on MUM24 cells is “induce cell death by causing G2/M phase arrest”. Moreover, the “KMS-11 tumor growth compared to control mice” value in the experiment on KMS11 xenograft is “tumor growth was suppressed”.

Take `COCCOCCOCCOCCOCCOCCOCCOCCOCCOCCOCCOCCOc1cc2c(cc1N)C(=O)N(c1c(C(C)C)cccc1C(C)C)C2=O` [PEG11(O)-TC11]: the pIC50 in experiment [4] was 4.74; in experiment [5] it was 4.06.

As for `COCCOCCOCCOCCOCCOCCOCCOCCOCCOCCOCCOCCC(=O)OCCOc1cc2c(cc1N)C(=O)N(c1c(C(C)C)cccc1C(C)C)C2=O` [PEG11(E)-TC11], the results for the pIC50 in experiment [4] and in experiment [5] were 5.27 and 5.03, respectively. Moreover, the “Apoptosis induction (Annexin V+/PI− and Annexin V+/PI+ fractions)” value in experiment [2] is “clearly induce apoptosis”. For the same compound, the “Effect on cell cycle (proportion of tetraploid cells)” value with MUM24 cells was “induce cell death by causing G2/M phase arrest”.
